Data: patent US11279687B2, “Compounds and compositions for the inhibition of NAMPT” (Valo Health, Inc., priority 2010, dated 2022)
Where two headings read alike, the source gives them in different places.

Tests used:
[1] = target: NAMPT (Homo sapiens (Human), UniProt P43490); experiment: NAMPT biochemical inhibition assay (NMN quantified by mass spectrometry); details: NAMPT biochemical inhibition; read-out: Biochem IC50
[2] = system: A2780 cells; experiment: In-vitro cell proliferation assay (SRB), A2780 cells; format: cell-based; details: read-out: A2780 IC50;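 note: viable cell number read as SRB absorbance, background from media-only wells subtracted, IC50 interpolated from percent inhibition at two bracketing compound concentrations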
[3] = Homo sapiens, A2780, 72 h, A2780 cells, 72 hours, SRB

Sequence of NAMPT (P43490 whole entry): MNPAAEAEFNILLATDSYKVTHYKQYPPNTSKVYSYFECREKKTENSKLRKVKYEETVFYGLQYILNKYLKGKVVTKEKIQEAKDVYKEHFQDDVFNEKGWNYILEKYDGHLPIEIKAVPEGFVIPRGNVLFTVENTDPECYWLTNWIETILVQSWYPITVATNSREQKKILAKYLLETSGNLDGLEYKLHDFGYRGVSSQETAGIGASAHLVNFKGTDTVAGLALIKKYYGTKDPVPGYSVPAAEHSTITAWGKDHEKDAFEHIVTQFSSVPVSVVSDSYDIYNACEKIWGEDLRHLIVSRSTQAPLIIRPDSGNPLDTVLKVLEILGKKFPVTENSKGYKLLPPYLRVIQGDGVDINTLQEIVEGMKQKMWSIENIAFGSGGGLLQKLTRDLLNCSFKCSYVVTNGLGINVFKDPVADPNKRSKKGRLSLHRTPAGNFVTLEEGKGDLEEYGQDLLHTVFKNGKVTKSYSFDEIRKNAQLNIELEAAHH

Work on `O=C(NCc1cccnc1)Nc1ccc(S(=O)(=O)N2CC[C@H]3CCCC[C@@H]3C2)cc1` (relative stereo) [rel-3-{4-[(4aR,8aS)-decahydroisoquinoline-2-sulfonyl]phenyl}-1-(pyridin-3-ylmethyl)urea] yielded an IC50 [1] of 2 nM and an IC50 [2, 3] of 101 nM.

Work on `O=C(NCc1cccnc1)Nc1ccc(C(=O)c2ccccc2)cc1` [1-(4-benzoylphenyl)-3-(pyridin-3-ylmethyl)urea] yielded an IC50 [2, 3] of 735 nM.

Work on `O=C(NCc1cccnc1)Nc1ccc(S(=O)(=O)N2CC3CCC2C3)cc1` (centres unmarked) [1-(4-{2-azabicyclo[2.2.1]heptane-2-sulfonyl}phenyl)-3-(pyridin-3-ylmethyl)urea] yielded an IC50 [1] of 10 nM and an IC50 [2, 3] of 236 nM.

Compound `O=C(NCc1cccnc1)Nc1ccc(S(=O)(=O)N2CCC3(CCOC3)CC2)cc1` [1-(4-{2-oxa-8-azaspiro[4.5]decane-8-sulfonyl}phenyl)-3-(pyridin-3-ylmethyl)urea] has an IC50 [1] of 5 nM and an IC50 [2, 3] of 89 nM.

Compound `O=C(NCc1cccnc1)Nc1ccc(S(=O)(=O)N2CCCC(CN3CCCC3=O)C2)cc1` (centres unmarked) [1-(4-{3-[(2-oxopyrrolidin-1-yl)methyl]piperidine-1-sulfonyl}phenyl)-3-(pyridin-3-ylmethyl)urea] has an IC50 [1] of 3 nM and an IC50 [2, 3] of 143 nM.

`O=C(NCc1cccnc1)Nc1ccc(S(=O)(=O)N2CCC3(CCCCC3)CC2)cc1` [1-(4-{3-azaspiro[5.5]undecane-3-sulfonyl}phenyl)-3-(pyridin-3-ylmethyl)urea] showed an IC50 [1] of 11 nM and an IC50 [2, 3] of 145 nM.

For `O=C(NCc1cccnc1)Nc1ccc(S(=O)(=O)N2Cc3cccc4cccc(c34)C2)cc1` [1-(4-{3-azatricyclo[7.3.1.0^5,^13]trideca-1(13),5,7,9,11-pentaene-3-sulfonyl}phenyl)-3-(pyridin-3-ylmethyl)urea], the IC50 [1] was 2 nM and the IC50 ([2]; A2780 cells, 72 hours, SRB) was 26 nM.

`O=C(NCc1cccnc1)Nc1ccc(S(=O)(=O)N2C3CCC2COC3)cc1` [1-(4-{3-oxa-8-azabicyclo[3.2.1]octane-8-sulfonyl}phenyl)-3-(pyridin-3-ylmethyl)urea] showed an IC50 [2, 3] of 287 nM.

`O=C(NCc1cccnc1)Nc1ccc(S(=O)(=O)Nc2cccc(C(F)(F)F)c2)cc1` [1-(pyridin-3-ylmethyl)-3-(4-{[3-(trifluoromethyl)phenyl]sulfamoyl}phenyl)urea] showed an IC50 [1] of 6 nM.

For `O=C(NCc1cccnc1)Nc1cccc(S(=O)(=O)N2CCCCC2)c1` [1-[3-(piperidine-1-sulfonyl)phenyl]-3-(pyridin-3-ylmethyl)urea], the IC50 [2, 3] was > 30000 nM.

`O=C(NCc1cccnc1)Nc1ccc(S(=O)(=O)N2CCN(c3ccccc3)CC2)cc1` [1-[4-(4-phenylpiperazine-1-sulfonyl)phenyl]-3-(pyridin-3-ylmethyl)urea] showed an IC50 [1] of 5 nM.

With `O=C(NCc1cccnc1)Nc1ccc(S(=O)(=O)N2CCC(c3ccccc3)CC2)cc1` [1-[4-(4-phenylpiperidine-1-sulfonyl)phenyl]-3-(pyridin-3-ylmethyl)urea] the IC50 [1] was 3 nM.

For `O=C(NCc1cc[nH]n1)Nc1ccc(S(=O)(=O)c2ccccc2)cc1` [1-[4-(benzenesulfonyl)phenyl]-3-(1H-pyrazol-3-ylmethyl)urea], the IC50 [2, 3] was > 20000 nM.

With `O=C(NCc1cccnc1)Nc1ccc(S(=O)(=O)N2CCOCC2)cc1` [1-[4-(morpholine-4-sulfonyl)phenyl]-3-(pyridin-3-ylmethyl)urea] the IC50 [2, 3] was 1350 nM.

In the case of `O=C(NCc1cccnc1)Nc1ccc(S(=O)(=O)N2CCCCC2)cc1` [1-[4-(piperidine-1-sulfonyl)phenyl]-3-(pyridin-3-ylmethyl)urea], the IC50 [2, 3] is reported as 167 nM.

For `Nc1cccc(CNC(=O)Nc2ccc(S(=O)(=O)c3ccccc3)cc2)c1` [1-[(3-aminophenyl)methyl]-3-[4-(benzenesulfonyl)phenyl]urea], the IC50 [2, 3] was 2540 nM.

With `O=C(NCc1ccc(F)cc1)Nc1ccc(S(=O)(=O)N2CCCCC2)cc1` [1-[(4-fluorophenyl)methyl]-3-[4-(piperidine-1-sulfonyl)phenyl]urea] the IC50 [2, 3] was 25000 nM.

`NC(=O)C1CCN(S(=O)(=O)c2ccc(NC(=O)NCc3cccnc3)cc2)CC1` [1-[(4-{[(pyridin-3-ylmethyl)carbamoyl]amino}benzene)sulfonyl]piperidine-4-carboxamide] showed an IC50 [2, 3] of 1480 nM.

`Nc1ccc(CNC(=O)Nc2ccc(S(=O)(=O)c3ccccc3)cc2)cn1` [1-[(6-aminopyridin-3-yl)methyl]-3-[4-(benzenesulfonyl)phenyl]urea] gave an IC50 ([2]; Homo sapiens, A2780, 72 h) of 81 nM.

`O=C(NCc1cccnc1)Nc1ccc(S(=O)(=O)c2ccc(-n3cccn3)c(F)c2)cc1` [3-(4-{[3-fluoro-4-(1H-pyrazol-1-yl)benzene]sulfonyl}phenyl)-1-(pyridin-3-ylmethyl)urea] gave an IC50 [2, 3] of 54 nM.

In the case of `CN(Cc1ccc(F)cc1)S(=O)(=O)c1ccc(NC(=O)NCc2cccnc2)cc1` [3-(4-{[(4-fluorophenyl)methyl](methyl)sulfamoyl}phenyl)-1-(pyridin-3-ylmethyl)urea], the IC50 [1] is reported as 3 nM.

With `C[C@@H]1[C@@H](NS(=O)(=O)c2ccc(NC(=O)NCc3cccnc3)cc2)C[C@H]2C[C@@H]1C2(C)C` [3-(pyridin-3-ylmethyl)-1-(4-{[(1S,2S,3S,5R)-2,6,6-trimethylbicyclo[3.1.1]heptan-3-yl]sulfamoyl}phenyl)urea] the IC50 [2, 3] was 96 nM.

`O=C(NCc1cccnc1)Nc1ccc(S(=O)(=O)c2ccccn2)cc1` [3-(pyridin-3-ylmethyl)-1-[4-(pyridine-2-sulfonyl)phenyl]urea] showed an IC50 [2, 3] of 869 nM.

`O=C(NCc1cccnc1)Nc1ccc(S(=O)(=O)N2CCCC2)cc1` [3-(pyridin-3-ylmethyl)-1-[4-(pyrrolidine-1-sulfonyl)phenyl]urea] showed an IC50 [2, 3] of 1400 nM.

Work on `Cn1cc(S(=O)(=O)c2ccc(NC(=O)NCc3cccnc3)cc2)cn1` [3-[4-(1-methyl-1H-pyrazole-4-sulfonyl)phenyl]-1-(pyridin-3-ylmethyl)urea] yielded an IC50 [2, 3] of 247 nM.

In the case of `CC1CCN(S(=O)(=O)c2ccc(NC(=O)NCc3cccnc3)cc2)CC1` [3-[4-(4-methylpiperidine-1-sulfonyl)phenyl]-1-(pyridin-3-ylmethyl)urea], the IC50 [2, 3] is reported as 254 nM.

`O=C(NCc1cccnc1)Nc1ccc(S(=O)(=O)N2CCCCCC2)cc1` [3-[4-(azepane-1-sulfonyl)phenyl]-1-(pyridin-3-ylmethyl)urea] showed an IC50 [2, 3] of 139 nM.

`O=C(NCc1cccnc1)Nc1ccc(S(=O)(=O)N2CCC2)cc1` [3-[4-(azetidine-1-sulfonyl)phenyl]-1-(pyridin-3-ylmethyl)urea] was tested, and the IC50 [2, 3] was 1620 nM.

With `O=C(Nc1ccc(S(=O)(=O)c2ccccc2)cc1)Nc1cccnc1` [3-[4-(benzenesulfonyl)phenyl]-1-(pyridin-3-yl)urea] the IC50 [2, 3] was 27500 nM.

`CN(C)c1ccc(CNC(=O)Nc2ccc(S(=O)(=O)c3ccccc3)cc2)cn1` [3-[4-(benzenesulfonyl)phenyl]-1-{[6-(dimethylamino)pyridin-3-yl]methyl}urea] showed an IC50 [2, 3] of 27600 nM.

With `O=C(NCCc1cccnc1)Nc1ccc(S(=O)(=O)N2CCCCC2)cc1` [3-[4-(piperidine-1-sulfonyl)phenyl]-1-[2-(pyridin-3-yl)ethyl]urea] the IC50 [2, 3] was 661 nM.

`O=C(NCc1ccccc1F)Nc1ccc(S(=O)(=O)N2CCCCC2)cc1` [3-[(2-fluorophenyl)methyl]-1-[4-(piperidine-1-sulfonyl)phenyl]urea] was tested, and the IC50 [2, 3] was > 30000 nM.

With `O=C(NCc1cccc(F)c1)Nc1ccc(S(=O)(=O)N2CCCCC2)cc1` [3-[(3-fluorophenyl)methyl]-1-[4-(piperidine-1-sulfonyl)phenyl]urea] the IC50 [2, 3] was > 30000 nM.

For `O=C(NCc1cncc(F)c1)Nc1ccc(S(=O)(=O)N2CCCCC2)cc1` [3-[(5-fluoropyridin-3-yl)methyl]-1-[4-(piperidine-1-sulfonyl)phenyl]urea], the IC50 [2, 3] was 752 nM.

In the case of `O=C(NCc1ccccc1)Nc1ccc(S(=O)(=O)N2CCCCC2)cc1` [3-benzyl-1-[4-(piperidine-1-sulfonyl)phenyl]urea], the IC50 [2, 3] is reported as > 30000 nM.

`O=C(NCc1cccnc1)Nc1ccc(S(=O)(=O)c2ccc(F)cc2Cl)cc1` [3-{4-[(2-chloro-4-fluorobenzene)sulfonyl]phenyl}-1-(pyridin-3-ylmethyl)urea] showed an IC50 [1] of 8 nM.

For `O=C(NCc1cccnc1)Nc1ccc(S(=O)(=O)Nc2ccccc2F)cc1` [3-{4-[(2-fluorophenyl)sulfamoyl]phenyl}-1-(pyridin-3-ylmethyl)urea], the IC50 [1] was 8 nM.

In the case of `O=C(NCc1cccnc1)Nc1ccc(S(=O)(=O)Nc2cccc(Br)c2)cc1` [3-{4-[(3-bromophenyl)sulfamoyl]phenyl}-1-(pyridin-3-ylmethyl)urea], the IC50 [1] is reported as 3 nM.

With `O=C(NCc1cccnc1)Nc1ccc(S(=O)(=O)Nc2cccc(Cl)c2)cc1` [3-{4-[(3-chlorophenyl)sulfamoyl]phenyl]-1-(pyridin-3-ylmethyl)urea] the IC50 [1] was 1 nM.

With `Cc1cccc(NS(=O)(=O)c2ccc(NC(=O)NCc3cccnc3)cc2)c1` [3-{4-[(3-methylphenyl)sulfamoyl]phenyl}-1-(pyridin-3-ylmethyl)urea] the IC50 [1] was 10 nM.

`C[C@H]1CCCN(S(=O)(=O)c2ccc(NC(=O)NCc3cccnc3)cc2)C1` [3-{4-[(3S)-3-methylpiperidine-1-sulfonyl]phenyl}-1-(pyridin-3-ylmethyl)urea] was tested, and the IC50 [2, 3] was 105 nM.

`CCc1ccc(NS(=O)(=O)c2ccc(NC(=O)NCc3cccnc3)cc2)cc1` [3-{4-[(4-ethylphenyl)sulfamoyl]phenyl}-1-(pyridin-3-ylmethyl)urea] was tested, and the IC50 [1] was 7 nM.

Compound `CC(C)CN(C)S(=O)(=O)c1ccc(NC(=O)NCc2cccnc2)cc1` [3-{4-[methyl(2-methylpropyl)sulfamoyl]phenyl}-1-(pyridin-3-ylmethyl)urea] has an IC50 [1] of 7 nM.

Compound `CN(Cc1cccc(C(F)(F)F)c1)S(=O)(=O)c1ccc(NC(=O)NCc2cccnc2)cc1` [3-{4-[methyl({[3-(trifluoromethyl)phenyl]methyl})sulfamoyl]phenyl}-1-(pyridin-3-ylmethyl)urea] has an IC50 [1] of 7 nM.

`O=C(NCc1ccc(S(=O)(=O)N2CCCCC2)cc1)Nc1cccnc1` [3-{[4-(piperidine-1-sulfonyl)phenyl]methyl}-1-(pyridin-3-yl)urea] showed an IC50 [2, 3] of 2260 nM.

`O=C(NCc1ccc(S(=O)(=O)N2CCCCC2)cc1)NCc1cccnc1` [3-{[4-(piperidine-1-sulfonyl)phenyl]methyl}-1-(pyridin-3-ylmethyl)urea] showed an IC50 [2, 3] of 547 nM.

`C[C@@H]1CN(S(=O)(=O)c2ccc(NC(=O)NCc3cccnc3)cc2)C[C@H](C)O1` [rel-3-{4-[(2R,6S)-2,6-dimethylmorpholine-4-sulfonyl]phenyl}-1-(pyridin-3-ylmethyl)urea] was tested, and the IC50 [2, 3] was 13.5 nM.
